Where two headings read alike, the source gives them in different places.
Assay: Bioavailability trial of nicardipine in rhesus monkeys: nasal composition compared with oral route (gastric tube), plasma levels by gas chromatography
Format: in vivo
Settings: rhesus monkey; for AUC(0-t) at 24 h: read-out: AUC 0-24 h (area under the curve); for Tmax: read-out: T max (time to obtain C max)
Method: This activity has been confirmed by standard bioavailability trials wherein nasal pharmaceutical compositions of the invention are compared with other conventional compositions and blood levels of drug are measured. In one trial, a nasal composition of the invention comprising 4 mg nicardipine hydrochloride per ml of distilled water has been administered nasally to rhesus monkeys (weight from 7 to 12 kg). A dose of 0.5 ml of this composition is sprayed each morning into each nostril. Blood samples are taken up 15 minutes, 30 minutes, 1 hour, 2 hours, 3 hours, 4 hours, 6 hours, 8 hours and 24 hours after administration and treated with lithium heparin. The treated blood samples are centrifuged and the concentration of nicardipine in the plasma is determined in conventional manner by converting the nicardipine into a corresponding pyridine derivative and determination by gas chromatographic techniques. The same animals are also treated in another similar trial with orally administered nicardipine at a dose of 20 mg by mean of a gastric tube.

[1] = oral route (gastric tube), 20 mg

AUC(0-t) at 24 h (nasal route, 4 mg): 192 ± 36.3 ng·h/mL
Tmax (nasal route, 4 mg): 0.4 ± 0.1 h
AUC(0-t) at 24 h [1]: 457 ± 86.6 ng·h/mL
Tmax [1]: 2.1 ± 0.5 h
SMILES: COC(=O)C1=C(C)NC(C)=C(C(=O)OCCN(C)Cc2ccccc2)C1c1cccc([N+](=O)[O-])c1 (stereo not shown) [nicardipine]

Reference: patent US4885305A, “Nasal compositions” (Yamanouchi Pharmaceutical Co., Ltd., priority 1984, dated 1989)
